{
  "source": "patent US20060084599A1",
  "about": "“Compositions, methods and kits relating to notch signaling” (Maine Medical Center, priority 2003, published 2006)",
  "molecules": {"B1": {"name": "sDl1: soluble non-transmembrane form (extracellular domain) of the Notch ligand Delta1 (protein)", "chain": "QVWSSGVFELKLQEFVNKKGLLGNRNCCRGGAGPPPCACRTFFRVCLKHYQASVSPEPPCTYGSAVTPVLGVDSFSLPDGGGADSAFSNPIRFPFGFTWPGTFSLIIEALHTDSPDDLATENPERLISRLATQRHLTVGEEWSQDLHSSGRTDLKYSYRFVCDEHYYGEGCSVFCRPRDDAFGHFTCGERGEKVCNPGWKGPYCTEPICLPGCDEQHGFCDKPGECKCRVGWQGRYCDECIRYPGCLHGTCQQPWQCNCQEGWGGLFCNQDLNYCTHHKPCKNGATCTNTGQGSYTCSCRPGYTGATCELGIDECDPSPCKNGGSCTDLENSYSCTCPPGFYGKICELSAMTCADGPCFNGGRCSDSPDGGYSCRCPVGYSGFNCEKKIDYCSSSPCSNGAKCVDLGDAYLCRCQAGFSGRHCDDNVDDCASSPCANGGTCRDGVNDFSCTCPPGYTGRNCSAPVSRCEHAPCHNGATCHERGHRYVCECARGYGGPNCQFLLPELPPGPAVVDLTEKLEGQGGPFPW", "modifications": "left off: small tags and cut ends", "notes": "soluble non-transmembrane form (extracellular domain) of the Notch ligand Delta1"}},
  "key": {"FGF1 transcript": {"system": "FGF1 transcript", "assay": "Nuclear run-on analysis of FGF1 transcription", "format": "cell-based, murine", "method": "Approximately either 1×10^7 Swiss or NIH 3T3 cells were harvested and washed using ice-cold 50 mM sodium phosphate buffer, pH 7.0 containing 15 mM NaCl. Cell pellets were lysed in 4 ml of ice-cold 10 mM Tris-HCl, pH 7.5, containing 3 mM CaCl2, 3 mM MgCl2, 10 mM NaCl, and 0.5 % NP-40. The nuclear pellet was resuspended in glycerol storage buffer (50 mM Tris-HCl, pH 8.3 containing 40% glycerol, 5 mM MgCl2 and 0.1 mM EDTA), the nuclei were snap frozen, and stored in liquid nitrogen. For run-on transcription, 200 μl aliquots of the frozen nuclei were added to 200 μl of reaction buffer (10 mM Tris-HCl, pH 8.3 containing 5 mM MgCl2, 300 mM KCl, 5 mM DTT, 1 mM each of ATP, CTP, and GTP, 40 units of RNase inhibitor and 100 μCi of [^32P]UTP (800 Ci/mmol; Amersham), and incubated at 30° C. for 30 minutes. The mixture was treated with 100 units of RNase-free DNase I for 30 minutes at 30° C. and then incubated with 400 μl of 20 mM Tris-HCl, pH 7.5, containing 2% SDS, 10 mM EDTA, […] proteinase K for 30 minutes at 42° C. Following phenol/CHCl3 extraction, the labelled transcripts were precipitated with isopropanol and dissolved in 50 μl of 10 mM TES, pH 7.5, containing 10 mM EDTA and 0.2% SDS. Linearized plasmid constructs (0.4 μg/dot) containing either the fgf1 or gapdh cDNA were alkali denatured and immobilized onto a Hybond-N^+ membrane (Amersham). Hybridization was performed in 1 ml of ULTRA Hyb (Ambion), with 5×10^6 cpm of radiolabeled RNA and yeast RNA (10 μg/ml) for 18 hours with shaking at 50° C. Membranes were washed twice with washing buffer (2×SSC containing 0.1% SDS) at 50° C. and analyzed using a phosphoimager (Molecular Dynamics)."}, "cortactin": {"system": "cortactin", "assay": "Phosphotyrosine cortactin immunoblot", "format": "cell-based, mouse", "settings": "stable NIH 3T3 cell transfectants expressing the ligand", "method": "Immunoblot Analysis. Cell lysates from insert-less vector sDl1 and sJ1 NIH 3T3 cell transfectants were prepared in 20 mM Tris HCl, pH 7.5, containing 300 mM sucrose, 60 mM—KCl, 15 mM NaCl, 0.5 mM EDTA, 0.5% (v/v) Triton X-100, 1 mM phenylmethylsulfonyl fluoride, 10 μg/ml leupeptin, 2 μg/ml aprotinin, 0.1% (w/v) deoxycholic acid and 1 mM sodium orthovanadate. Samples of equal protein content were subjected to SDS-PAGE and immunoblot analysis was performed as previously described (Small et al., 2001, J. Biol. Chem. 276:32022-32030) using either a rabbit anti-Src [pY418] phosphospecific antibody (Biosource International), a rabbit anti-total Src antibody (Santa Cruz Biotechnology), a rabbit polyclonal anti-cortactin antibody (a gift from Dr. Xi Zhan, American Red Cross), or an anti-phosphotyrosine antibody (Upstate). Immunoprecipitation of cortactin was performed as previously described (Zhan et al., 1993, J. Biol. Chem. 268:24427-24431)."}, "NIH 3T3 cells": {"system": "NIH 3T3 cells", "assay": "Cell migration (scratch) assay", "format": "cell-based, mouse", "settings": "stable NIH 3T3 cell transfectants expressing the ligand", "method": "Cell Migration Assay. Approximately 10^5 Sj1 or sDl1 NIH 3T3 cells were plated in 6-well plastic plates (Falcon) DMEM supplemented with 10% (w/v) bovine calf serum (BCS; Hyclone) and after the cells reached approximately 60-70% confluence, the cell monolayer was scratched using a plastic cell scraper. Photomicrographs were taken immediately after the injury and 24 hours and 48 hours later."}, "[1]": {"system": "NIH 3T3 cell transfectants", "assay": "Anchorage-dependent cell growth assay", "format": "cell-based, mouse", "settings": "stable NIH 3T3 cell transfectants, 10% BCS", "method": "Anchorage-Dependent and -Independent Cell Growth Assays. Approximately 3×10^4 cells were plated on fibronectin (10 μg/cm^2)-coated in 12-well cell culture dishes (Falcon) in DMEM containing 10% BCS (v/v) (Hyclone). Three wells of the individual NIH 3T3 cell transfectants were harvested every third day and cell number was quantitated using a hemocytometer. Anchorage-independent cell growth was evaluated by plating in duplicate approximately 1.7×10^3 cells in DMEM containing 0.5% (w/v) agar (Sigma) 10% (v/v) BCS into 5 cm plastic dishes (Falcon) as previously described (Small et al., 2003, J. Biol. Chem. 278:16405-16413)."}, "[2]": {"system": "NIH 3T3 stable transfectants", "assay": "FGF1 release in stable NIH 3T3 cell transfectants (Example 1)", "format": "cell-based, murine", "settings": "sJ1 stable transfectants transduced with FGF1 adenovirus, 37° C.", "method": "Adenovirus vector expressing lacZ, FGF1, caN1, dnN1, caN2 or dnN2 was prepared as described (Hardy et al., 1997, J. Virol. 71: 1842-1849) at a titer of approximately 10^12 viral particles/ml. For adenoviral transduction, NIH 3T3 stable transfectants were incubated in serum-free medium with approximately […] viral particles/cell in the presence of poly-D-lysine hydrobromide (Sigma) (5×10^3 molecules/viral particle) for two hours at 37° C., after which the adenovirus-containing media was removed and replaced with serum-containing medium (10% BCS) for an additional 24 hours. The transduced cells were harvested by trypsin digestion and seeded for the heat shock experiments as previously described (Jackson et al., 1992, Proc. Natl. Acad. Sci. USA 89: 10691-10695). After heat shock, the conditioned media from cells exposed to either 37° C. (normal conditions) or 42° C. (heat shock conditions) were treated with 0.1% DTT for 2 hours at 37° C., adsorbed to heparin-Sepharose and eluted from the column with 1.5 M NaCl. The eluants were resolved by 15% (w/v) SDS-PAGE and evaluated by FGF1 immunoblot analysis as described (Jackson et al., 1992, Proc. Natl. Acad. Sci. USA 89: 10691-10695)."}},
  "data": [
    {"molecule": "thrombin", "values": [
      {"measurement": "induction of FGF1 transcript", "setting": "FGF1 transcript; 10 μg/ml α-thrombin or 5 μM TRAP", "result": "able to induce the expression of the FGF1 transcript"},
      {"measurement": "time at which FGF1 mRNA reached a plateau", "setting": "FGF1 transcript; NIH 3T3 and Swiss 3T3 cells", "result": 2, "unit": "h"},
      {"measurement": "time at which FGF1 mRNA was initially detected", "setting": "FGF1 transcript; NIH 3T3 and Swiss 3T3 cells", "result": 15, "unit": "min"}
    ]},
    {"molecule": "sJ1: Soluble Jagged1, amino acid residues about 1 to 1067 (SEQ ID NO:3) of full-length human Jagged1", "values": [
      {"measurement": "level of tyrosine-phosphorylated cortactin", "setting": "cortactin", "result": "increased level"},
      {"measurement": "migratory behavior", "setting": "NIH 3T3 cells", "result": "exhibited a decrease in their migratory potential"},
      {"measurement": "growth kinetics at high cell density", "setting": "[1]", "result": "impaired contact inhibition of growth"},
      {"measurement": "FGF1 release under normal growth conditions", "setting": "[2]", "result": "significant release of FGF1 at 37 °C"}
    ]},
    {"molecule": "B1", "values": [
      {"measurement": "level of tyrosine-phosphorylated cortactin", "setting": "cortactin", "result": "decrease"},
      {"measurement": "migratory behavior", "setting": "NIH 3T3 cells", "result": "displayed normal motility"},
      {"measurement": "growth kinetics at high cell density", "setting": "[1]", "result": "impaired contact inhibition of growth"}
    ]}
  ]
}
